The test system of experiment [1] is lens. Kind of experiment: Pharmacological Test 4: lens elasticity, once-daily instillation of ursodeoxycholic acid for 2 weeks. Format: in vivo, C57BL/6J mice. The conditions noted are these: 14 days; for Lens elasticity improvement: vs vehicle control; for Lens elasticity improvement, in words: instilled once-daily, 1% and 3% ursodeoxycholic acid samples, 1.5% EV06 sample. As to the method: A vehicle comprising 0.1% (w/v) of ethyl pyruvate, 0.269% (w/v) of sodium dihydrogenphosphate monohydrate (NaH2PO4H2O), 0.433% (w/v) of disodium hydrogenphosphate (Na2HPO4), 0.2% (w/v) of hydroxypropyl methylcellulose, 0.5% (w/v) of NaCl was prepared. Ursodeoxycholic acid was sonicated with the addition of the vehicle to prepare a 3.0% (w/v) suspension. The resulting 3.0% (w/v) suspension was diluted with the vehicle to prepare a 1.0% (w/v) suspension. Further, the resulting 1.0% (w/v) suspension was diluted with the vehicle to prepare a 0.3% (w/v) suspension. The total amount of each sample to be used in one day was prepared before use. EV06 was sonicated with the addition of the vehicle to prepare a 1.5% (w/v) solution. The total amount of the sample to be used in one day was prepared before use. 1) Each test sample (2.5 μL/eye) was instilled into the right eye of 8-month-old C57BL/6J mice with a Pipetman once per day (QD; around 9:00), twice per day (BID; around 9:00 and 17:00), or 3 times per day (TID; around 9:00, 13:00 and 17:00) for 14 days. 2) After the final instillation, the mice were euthanized by carbon dioxide inhalation, and then the eyeballs were extracted and rinsed with Hank's balanced salt solution (HBSS). 3) The sclera near the optic nerve was cut with a razor, the lens was removed through the incision, and the removed lens was immersed in HBSS. 4) The lens was placed on a glass slide, and an all-in-one fluorescence microscope BZ-9000 ([…]) was used to capture an image of the lens (image a). 5) Next, one cover glass (Corning^(registered trade mark) 22×22 mm Square) was placed on the lens, and an image in which the thickness of the lens changed due to the weight was similarly captured (Image b). 6) A change in the lens diameter was calculated from Equation 1 wherein the lens diameter of Image a is subtracted from the lens diameter of Image b, as described below. Then, the lens elasticity improvement of each sample group compared with the vehicle control group was calculated from Equation 2 described below. The mean of the vehicle control group was based on 5 eyes, the mean of each ursodeoxycholic acid sample group was based on 10 eyes, and the mean of each EV06 sample group was based on 10 eyes. Change in lens diameter=Lens diameter in Image b of each test sample-Lens diameter in Image a of each test sample (Equation 1) Lens elasticity improvement of each sample group=Mean change in lens diameter of each Test sample group-Mean change in lens diameter of Vehicle control group (Equation 2)

Experiment [2] deals with lens. Kind of experiment: Pharmacological Test 3: lens elasticity after instillation of ursodeoxycholic acid (free form). The settings on record: 2.5 μL/eye, 3 times per day, 12 to 15 days, vs vehicle control. The format is in vivo, C57BL/6J mice. How it is done:
A vehicle comprising 0.1% (w/v) of ethyl pyruvate, 0.269% (w/v) of sodium dihydrogenphosphate monohydrate (NaH2PO4H2O), 0.433% (w/v) of disodium hydrogenphosphate (Na2HPO4), 0.2% (w/v) of hydroxypropyl methylcellulose, and 0.5% (w/v) of NaCl was prepared. Ursodeoxycholic acid was sonicated with the addition of the vehicle to prepare a 1.5% (w/v) suspension. The resulting 1.5% (w/v) suspension was diluted with the vehicle to prepare a 0.5% (w/v) suspension. Further, the resulting 0.5% (w/v) suspension was diluted with the vehicle to prepare a 0.15% (w/v) suspension. The total amount of each sample to be used in one day was prepared before use. EV06 was sonicated with the addition of the vehicle to prepare a 1.5% (w/v) solution. The total amount of the sample to be used in one day was prepared before use. 1) Each test sample (2.5 μL/eye) was instilled into the right eye of 8-month-old C57BL/6J mice with a Pipetman 3 times per day (around 9:00, 13:00 and 17:00) for 12 to 15 days. 2) After the final instillation, the mice were euthanized by carbon dioxide inhalation, and then the eyeballs were extracted and rinsed with Hank's balanced salt solution (HBSS). 3) The sclera near the optic nerve was cut with a razor, the lens was removed through the incision, and the removed lens was immersed in HBSS. 4) The lens was placed on a glass slide, and an all-in-one fluorescence microscope BZ-9000 (Keyence) was used to capture an image of the lens (Image a). 5) Next, one cover glass (Corning^(registered trade mark) 22×22 mm Square) was placed on the lens, and an image in which the thickness of the lens changed due to the weight was similarly captured (image b). 6) A change in the lens diameter was calculated from Equation 1 wherein the lens diameter of Image a is subtracted from the lens diameter of Image b, as described below. Then, the lens elasticity improvement of each sample group compared with the vehicle control group was calculated from Equation 2 described below. The mean of the vehicle control group was based on 5 eyes, the mean of each ursodeoxycholic acid sample group was based on 10 eyes, and the mean of the EV06 sample group was based on 10 eyes. Change in lens diameter=Lens diameter in Image b of each test sample−Lens diameter in Image a of each test sample (Equation 1) Lens elasticity improvement of each sample group=Mean change in lens diameter of each Test sample group−Mean change in lens diameter of Vehicle control group (Equation 2)

Molecules are shown by their SMILES.

As for `C[N+](C)(C)CCOC(=O)CCCC[C@@H]1CCSS1` [EV06, lipoic acid choline ester], the Lens elasticity improvement in experiment [1] (1.5% (w/v) sample, BID) is reported as 15.7 μm; in experiment [1] (1.5% (w/v) sample, QD), −3.6 μm; in experiment [1] (1.5% (w/v) sample, TID), 29.5 μm; in experiment [2] (1.5% (w/v) sample), 42.5 μm. The “Lens elasticity improvement, in words” value in experiment [1] is “no effect”.
`C[C@H](CCC(=O)O)[C@H]1CC[C@H]2[C@@H]3[C@@H](O)C[C@@H]4C[C@H](O)CC[C@]4(C)[C@H]3CC[C@]12C` [ursodeoxycholic acid, 3α,7β-Dihydroxy-5β-cholan-24-oic acid]: the Lens elasticity improvement turned out to be 2.8 μm in experiment [1] (0.3% (w/v) sample, QD); 28.1 μm in experiment [1] (1% (w/v) sample, QD); 30.4 μm in experiment [1] (3% (w/v) sample, QD); 31.8 μm in experiment [2] (0.15% (w/v) sample); 39.4 μm in experiment [2] (0.5% (w/v) sample); 59.9 μm in experiment [2] (1.5% (w/v) sample). Also, in experiment [1], the “Lens elasticity improvement, in words” value is recorded as “potent lens elasticity improvement”.

(Values after patent US20230040386A1, “URSODEOXYCHOLIC ACID-CONTAINING AGENT FOR TREATING OR PREVENTING PRESBYOPIA” (priority 2018, published 2023).)
